# According to the NIST ThermoML archive (doi:10.1016/j.jct.2016.03.030):
# ± gives the expanded uncertainty stated by the source.
# Experiment: xn = mol fraction of the nth substance listed
# Conditions: 100 kPa, Liquid; for viscosity: Falling or rolling sphere viscometry; for mass density: Vibrating tube method
compound,measurement,setting,value
CCCCC[N+]1(C)CCOCC1.[Br-] [4-methyl-4-pentylmorpholinium bromide] + O,viscosity,"323.15 K, x1 = 0.0316",1.023 ± 0.1 mPa·s
same,viscosity,"323.15 K, x1 = 0.0695",1.95 ± 0.2 mPa·s
same,viscosity,"323.15 K, x1 = 0.0965",2.963 ± 0.3 mPa·s
same,viscosity,"323.15 K, x1 = 0.1196",4.065 ± 0.41 mPa·s
same,viscosity,"323.15 K, x1 = 0.1522",6.349 ± 0.64 mPa·s
same,viscosity,"323.15 K, x1 = 0.2054",11.9 ± 1.2 mPa·s
same,viscosity,"323.15 K, x1 = 0.219",13.89 ± 1.4 mPa·s
same,viscosity,"323.15 K, x1 = 0.2438",18.52 ± 1.9 mPa·s
same,viscosity,"323.15 K, x1 = 0.2754",26.85 ± 2.7 mPa·s
same,mass density,"323.15 K, x1 = 0.0316",1059.7 ± 1.1 kg/m3
same,mass density,"323.15 K, x1 = 0.0695",1111.5 ± 1 kg/m3
same,mass density,"323.15 K, x1 = 0.0965",1137 ± 1 kg/m3
same,mass density,"323.15 K, x1 = 0.1196",1152.9 ± 1 kg/m3
same,mass density,"323.15 K, x1 = 0.1522",1170.6 ± 1.1 kg/m3
same,mass density,"323.15 K, x1 = 0.2054",1191.3 ± 1.1 kg/m3
same,mass density,"323.15 K, x1 = 0.219",1195.4 ± 1.2 kg/m3
same,mass density,"323.15 K, x1 = 0.2438",1202.2 ± 1.2 kg/m3
same,mass density,"323.15 K, x1 = 0.2754",1209.4 ± 1.3 kg/m3
same,viscosity,"328.15 K, x1 = 0.0316",0.908 ± 0.091 mPa·s
same,viscosity,"328.15 K, x1 = 0.0695",1.703 ± 0.17 mPa·s
same,viscosity,"328.15 K, x1 = 0.0965",2.557 ± 0.26 mPa·s
same,viscosity,"328.15 K, x1 = 0.1196",3.475 ± 0.35 mPa·s
same,viscosity,"328.15 K, x1 = 0.1522",5.382 ± 0.54 mPa·s
same,viscosity,"328.15 K, x1 = 0.2054",9.86 ± 0.99 mPa·s
same,viscosity,"328.15 K, x1 = 0.219",11.44 ± 1.1 mPa·s
same,viscosity,"328.15 K, x1 = 0.2438",15.02 ± 1.5 mPa·s
same,viscosity,"328.15 K, x1 = 0.2754",21.35 ± 2.1 mPa·s
same,mass density,"328.15 K, x1 = 0.0316",1056.6 ± 1.1 kg/m3
same,mass density,"328.15 K, x1 = 0.0695",1108.1 ± 1 kg/m3
same,mass density,"328.15 K, x1 = 0.0965",1133.5 ± 1 kg/m3
same,mass density,"328.15 K, x1 = 0.1196",1149.4 ± 1 kg/m3
same,mass density,"328.15 K, x1 = 0.1522",1167.1 ± 1.1 kg/m3
same,mass density,"328.15 K, x1 = 0.2054",1187.9 ± 1.1 kg/m3
same,mass density,"328.15 K, x1 = 0.219",1191.9 ± 1.2 kg/m3
same,mass density,"328.15 K, x1 = 0.2438",1198.8 ± 1.2 kg/m3
same,mass density,"328.15 K, x1 = 0.2754",1206.1 ± 1.3 kg/m3
same,viscosity,"333.15 K, x1 = 0.0316",0.817 ± 0.082 mPa·s
same,viscosity,"333.15 K, x1 = 0.0695",1.504 ± 0.15 mPa·s
same,viscosity,"333.15 K, x1 = 0.0965",2.234 ± 0.22 mPa·s
same,viscosity,"333.15 K, x1 = 0.1196",3.003 ± 0.3 mPa·s
same,viscosity,"333.15 K, x1 = 0.1522",4.616 ± 0.46 mPa·s
same,viscosity,"333.15 K, x1 = 0.2054",8.297 ± 0.83 mPa·s
same,viscosity,"333.15 K, x1 = 0.219",9.561 ± 0.96 mPa·s
same,viscosity,"333.15 K, x1 = 0.2438",12.38 ± 1.2 mPa·s
same,viscosity,"333.15 K, x1 = 0.2754",17.33 ± 1.7 mPa·s
same,mass density,"333.15 K, x1 = 0.0316",1053.5 ± 1.1 kg/m3
same,mass density,"333.15 K, x1 = 0.0695",1104.7 ± 1 kg/m3
same,mass density,"333.15 K, x1 = 0.0965",1130 ± 1 kg/m3
same,mass density,"333.15 K, x1 = 0.1196",1145.9 ± 1 kg/m3
same,mass density,"333.15 K, x1 = 0.1522",1163.6 ± 1.1 kg/m3
same,mass density,"333.15 K, x1 = 0.2054",1184.4 ± 1.1 kg/m3
same,mass density,"333.15 K, x1 = 0.219",1188.5 ± 1.2 kg/m3
same,mass density,"333.15 K, x1 = 0.2438",1195.4 ± 1.2 kg/m3
same,mass density,"333.15 K, x1 = 0.2754",1202.7 ± 1.3 kg/m3
same,viscosity,"338.15 K, x1 = 0.0316",0.74 ± 0.074 mPa·s
same,viscosity,"338.15 K, x1 = 0.0695",1.374 ± 0.14 mPa·s
same,viscosity,"338.15 K, x1 = 0.0965",1.965 ± 0.2 mPa·s
same,viscosity,"338.15 K, x1 = 0.1196",2.724 ± 0.27 mPa·s
same,viscosity,"338.15 K, x1 = 0.1522",3.961 ± 0.4 mPa·s
same,viscosity,"338.15 K, x1 = 0.2054",7.055 ± 0.71 mPa·s
same,viscosity,"338.15 K, x1 = 0.219",8.079 ± 0.81 mPa·s
same,viscosity,"338.15 K, x1 = 0.2438",10.39 ± 1 mPa·s
same,viscosity,"338.15 K, x1 = 0.2754",14.54 ± 1.5 mPa·s
same,mass density,"338.15 K, x1 = 0.0316",1050.5 ± 1.1 kg/m3
same,mass density,"338.15 K, x1 = 0.0695",1101.2 ± 1 kg/m3
same,mass density,"338.15 K, x1 = 0.0965",1126.5 ± 1 kg/m3
same,mass density,"338.15 K, x1 = 0.1196",1142.3 ± 1 kg/m3
same,mass density,"338.15 K, x1 = 0.1522",1160.1 ± 1.1 kg/m3
same,mass density,"338.15 K, x1 = 0.2054",1180.9 ± 1.1 kg/m3
same,mass density,"338.15 K, x1 = 0.219",1185.1 ± 1.2 kg/m3
same,mass density,"338.15 K, x1 = 0.2438",1192 ± 1.2 kg/m3
same,mass density,"338.15 K, x1 = 0.2754",1199.3 ± 1.3 kg/m3
same,viscosity,"343.15 K, x1 = 0.0316",0.677 ± 0.068 mPa·s
same,viscosity,"343.15 K, x1 = 0.0695",1.288 ± 0.13 mPa·s
same,viscosity,"343.15 K, x1 = 0.0965",1.733 ± 0.17 mPa·s
same,viscosity,"343.15 K, x1 = 0.1196",2.554 ± 0.26 mPa·s
same,viscosity,"343.15 K, x1 = 0.1522",3.412 ± 0.34 mPa·s
same,viscosity,"343.15 K, x1 = 0.2054",6.064 ± 0.61 mPa·s
same,viscosity,"343.15 K, x1 = 0.219",7.061 ± 0.71 mPa·s
same,viscosity,"343.15 K, x1 = 0.2438",8.615 ± 0.87 mPa·s
same,viscosity,"343.15 K, x1 = 0.2754",12.93 ± 1.3 mPa·s
same,mass density,"343.15 K, x1 = 0.0316",1047.2 ± 1.1 kg/m3
same,mass density,"343.15 K, x1 = 0.0695",1097.8 ± 1 kg/m3
same,mass density,"343.15 K, x1 = 0.0965",1122.9 ± 1 kg/m3
same,mass density,"343.15 K, x1 = 0.1196",1138.7 ± 1 kg/m3
same,mass density,"343.15 K, x1 = 0.1522",1156.5 ± 1.1 kg/m3
same,mass density,"343.15 K, x1 = 0.2054",1177.5 ± 1.1 kg/m3
same,mass density,"343.15 K, x1 = 0.219",1181.6 ± 1.2 kg/m3
same,mass density,"343.15 K, x1 = 0.2438",1188.5 ± 1.2 kg/m3
same,mass density,"343.15 K, x1 = 0.2754",1196 ± 1.3 kg/m3
